The values that follow come from patent publication US20140303092A1 (CHIMERIX, INC., priority 2011, published 2014).

For one data set, the system named is CYP3A. The class given is in vitro ADME.
On the set-up of data set [1]: species or system human (healthy subjects). As to conditions: human, in vivo. How it is done: For this reason, in Study HDP-CDV-201, HDP-CDV was administered to fasted subjects. […] For this reason, in future studies, HDP-CDV may be administered with a food whenever possible.
However, the clinical significance of these findings is currently unknown and anecdotal reports indicate that gastrointestinal symptoms during HDP-CDV therapy may be mitigated by administration of HDP-CDV with food. […] In Study HDP-CDV-301, HDP-CDV is dosed with food; there is no restriction on the amount or type of food eaten. Therefore, evidence of the effectiveness of HDP-CDV is established in Study […] in subjects who receive HDP-CDV in the fed state.

For data set [2] the following is noted: cynomolgus monkey, in vivo.
Data set [3] deals with human liver microsomes and recombinant human CYP enzymes. In words: Study HDP-CDV-NCA-049: in vitro CYP reaction phenotyping, liver microsomes. It is filed as in vitro ADME. As to conditions: liver microsomes from multiple species, previous studies. The text has this: This study is expected to definitively quantify the major human metabolites arising from specific CYP enzymes and inform the need for a clinical DDI study investigating the effect of inhibition of these CYP enzymes on the PK of HDP-CDV.

Another data set concerns CMV. In words: In vitro antiviral activity in cell culture, CMV. It is filed as cell-based, cytomegalovirus. As to conditions: dsDNA viruses including CMV and AdV.
The conditions of data set [4]: mouse, in vivo.
In another data set the test system is HHV-6(B). The experiment in a line: In vitro antiviral activity in cell culture, HHV-6(B). It is filed as cell-based, human herpesvirus 6. The conditions noted are these: Human betaherpesvirus 6, B-cell.
A short description of data set [5]: Study HDP-CDV-201 post hoc analysis of preemptive therapy with anti-CMV STOC during follow-up. The class given is in vivo, human (HCT recipients). How it is done:
Subjects who developed CMV infection or disease at any time during the up to 11-week treatment period (through approximately 100 days posttransplant) were discontinued from study treatment (i.e., HDP-CDV or placebo) and followed for a period of 4 weeks, while subjects who completed the treatment period were followed for a period of 8 weeks. After study treatment was discontinued, subjects were treated with PrT for CMV infection/disease.
Among the study population (N=230 subjects), subjects who received STOC for PrT, defined as receiving at least one of GCV, vGCV, FOS or IV CDV for the explicit treatment of CMV infection/disease during the follow-up (“FU”) period, were identified. […]
Baseline measures for clinical laboratory values were defined as the last value on or before the last day of study treatment. The maximal decrease in ANC was determined using the minimum value reported after the last day of study treatment. The maximal increase in serum creatinine was determined using the maximum value reported after the last day of study treatment. […]
AEs were counted if the onset day was after the last day of study treatment. […] P-values were determined using Fisher's exact test for binary data and an independent t-test (pooled) for continuous data.

Data set [6] is described as follows: Study HDP-CDV-201: GVHD reported as AE, weekly stage and grade, logistic regression versus dose. On the set-up: species or system human (HSCT recipients). As to conditions: human, in vivo. How it is done: Because of the increased frequency of reports of acute GVHD in the BIW Cohorts of Study HDP-CDV-201, an in-depth analysis of reported GVHD was conducted. This analysis includes data from the following sources: Adverse events as reported in the eCRF, including GVHD and GI events; Weekly GVHD assessments (by stage, organ, and grade) as reported by the investigators on the GVHD module of the eCRF. […]
For all subjects, the sites were instructed to record the presence or absence of GVHD, and stage and grade of GVHD, if present, at each visit on a separate eCRF page. […] Stage and grade of GVHD were evaluated per the NIH consensus guidelines (Przepiorka D, et al. Consensus conference on acute GVHD grading. Bone Marrow Transplant. 1995; 15(6): 825-828), which focus on the intensity of symptoms or laboratory abnormalities associated with GVHD (for example, the staging of GVHD of the intestine is based on the volume of diarrhea). […]

As for `CCCCCCCCCCCCCCCCOCCCOP(=O)(O)COC(CO)Cn1ccc(N)nc1=O` (stereo not drawn) [HDP-CDV], in the data set on CYP3A, the “inhibition of CYP3A activity in vitro” value was “moderate inhibitor”. In [1], the “reduction of peak plasma concentration (Cmax)” value was 48% and the “reduction of systemic exposure (AUCinf)” value came to 28%. For the same molecule, the “systemic exposure, tablet lower than oral solution” value in data set [1] (po) was “about 13%”. Moreover, in data set [2], the ALT change entry is “dose-related increases in ALT which were quickly reversible after cessation of dosing”. In addition, the in vitro turnover entry in data set [3] is listed as “low in vitro turnover”. Also, the “higher potency in comparison to cidofovir, ganciclovir and other nucleoside analogs” value in the data set on CMV was 100 to 1000 fold. In addition, the “ALT increases in individual animals” value in data set [4] is listed as “up to 5 fold”. In addition, the EC50 with HHV-6(B) stood at 7 nM. Moreover, in [5] (100 mg twice-weekly (11/50)), the rate of preemption is on record as 22.0%. Also, the “incidence of preemptive therapy with anti-CMV STOC” value in data set [5] (four cohorts ≧100 mg HDP-CDV per week (38 of 146)) is on record as 26.0%. Besides, the “overall frequency of GVHD” value in [6] lay in the range of 44 to 59%.
